Results published in patent US20240124428A1, “HETEROCYCLIC INHIBITORS OF PCSK9” (CARDIO THERAPEUTICS PTY LTD, priority 2020, published 2024).

What was measured:
[1] = biological target: T1, binding between PCSK9 and the LDL receptor (Homo sapiens, UniProt Q8NBP7); experiment: In vitro PCSK9-LDLR binding assay (CircuLex kit)
T1 construct: purchased CircuLex
Procedure: Compounds were assayed for their ability to inhibit the binding between PCSK9 and the LDL receptor using a CircuLex PCSK9-LDLR in vitro binding assay kit. The procedure employed the reagents and buffers included in the kit as follows. 88 μL of 1× reaction buffer was placed into each well. 5 μL of test compound in 20% DMSO was added into each well. 10 mM solutions of test compounds in DMSO were diluted by 3-fold series to give 6-point concentration curves. The compounds were then diluted 20-fold with the reaction buffer. To each well was then added 7 μL of His-tagged PCSK9 wild type solution (1000 ng/mL). The plate was then covered with a plate sealer and incubated at room temperature for 3 hours, shaking at 300 rpm on an orbital microplate shaker. The test solutions were washed 4 times with 350 μL wash buffer. One 100 μL of biotinylated anti-His-tag monoclonal antibody was added to each well. The plate was covered with a plate sealer, and incubated at room temperature for 1 h, shaking at 300 rpm. The test solutions were washed 4 times with 350 μL wash buffer. […] of HRP-conjugated streptavidin was added to each well. The plate was covered with a plate sealer, and incubated at room temperature for 20 min, shaking at 300 rpm. The test solutions were washed 4 times with 350 μL wash buffer. 100 μL of substrate reagent was added into each well. The plate was covered with a plate sealer, and incubated at room temperature for 15 min, shaking at 300 rpm. Finally, 100 μL of stop solution was added to each well in the same order as the previously added substrate reagent.
The results of the binding assay are shown in FIG. 3, reported as IC50 (μM).

[2] = Cassette pharmacokinetic study, intravenous; assay type: in vivo, C57BL/6 mice; settings: mice, route not given (IV study 0.4 mg/kg); for Vd: male, C57BL/6, mouse, plasma, read-out: VSS
Procedure: Cassette dosing is a technique primarily used in drug discovery efforts in non-clinical studies to collect pharmacokinetic data from multiple drug candidates in a single experiment.
C57BL/6 mice (21-22 g, 6-8 weeks, male, purchased from Jihui Laboratory Animal Co. LTD) were allowed access to food and water ad libitum throughout the in-life phase of the study. Mice were dosed intravenously (IV) with a cassette of 0.4 mg/kg of test compounds in 5% DMAC, 5% Solutol HS15 and 90% saline. At designated time points, the animals were restrained manually, and ˜110 μL of blood/time point was collected into pre-cooled EDTA-K2 tubes via the facial vein. Blood samples were centrifuged at 4° C. (2000 g, 5 min) to obtain plasma within 15 min after sample collection. Plasma samples were stored at approximately −70° C. until analysis. Samples were assayed for their levels of test compounds by LC/MS/MS using a Triple Quadruple (6500+) system operating in a positive electrospray ionisation mode.
The PK parameters of half-life (T1/2) and area under the curve (AUC) of the compounds were assessed following a single intravenous (IV) injection (0.4 mg/kg) in mice (male, C57BL/6).

CYP3A4 = biological target: T2, CYP3A4 (Homo sapiens, UniProt P08684); experiment: CYP inhibition assay, CYP3A4; assay type: in vitro ADME; settings: probe Midazolam (5 μM), human liver microsomes
T2 construct: using human liver microsomes; from tissue; host or cells: human liver microsomes
T2 sequence (P08684 whole entry): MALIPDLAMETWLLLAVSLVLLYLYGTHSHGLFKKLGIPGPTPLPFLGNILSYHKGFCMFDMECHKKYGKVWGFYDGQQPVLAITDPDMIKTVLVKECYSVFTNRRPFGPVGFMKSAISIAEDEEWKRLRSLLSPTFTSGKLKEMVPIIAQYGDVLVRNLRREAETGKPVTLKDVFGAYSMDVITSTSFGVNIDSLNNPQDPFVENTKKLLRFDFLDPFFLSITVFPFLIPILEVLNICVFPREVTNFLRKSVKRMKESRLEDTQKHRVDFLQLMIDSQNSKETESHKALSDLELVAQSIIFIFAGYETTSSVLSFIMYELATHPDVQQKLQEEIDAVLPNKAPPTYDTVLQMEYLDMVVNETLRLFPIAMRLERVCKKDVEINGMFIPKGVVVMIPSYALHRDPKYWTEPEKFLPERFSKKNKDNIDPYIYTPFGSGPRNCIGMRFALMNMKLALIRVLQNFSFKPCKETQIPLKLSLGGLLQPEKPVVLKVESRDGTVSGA
Procedure: (§1) In vitro CYP (cytochrome P450) enzyme inhibition studies predict a drug candidate's predisposition to inhibit cytochrome P450 enzymes. The cytochrome P450 (CYP) inhibition assay was run against CYP2D6 and CYP3A4 isoforms using human liver microsomes. For CYP2D6, the probe substrates was Bufaralol (10 μM) and the positive control was Quinidine (2.5 μM). Midazolam (5 μM) was chosen as the probe substrate for CYP3A4 and Ketocanazole (2.5 μM) was used as the positive control inhibitor. To increase the throughput of the assay, one concentration (10 μM) was tested. For analysis via LC-MS, internal standards of 1-OH-Bufuralol-maleate-[D9] for CYP2D6 and 1′-OH-Midazolam-13C3 for CYP3A4 were used.

CYP2D6 = biological target: T3, CYP2D6 (Homo sapiens, UniProt P10635); experiment: CYP inhibition assay, CYP2D6; assay type: in vitro ADME; settings: probe Bufaralol (10 μM), human liver microsomes
T3 construct: using human liver microsomes; from tissue; host or cells: human liver microsomes
T3 sequence (P10635 whole entry): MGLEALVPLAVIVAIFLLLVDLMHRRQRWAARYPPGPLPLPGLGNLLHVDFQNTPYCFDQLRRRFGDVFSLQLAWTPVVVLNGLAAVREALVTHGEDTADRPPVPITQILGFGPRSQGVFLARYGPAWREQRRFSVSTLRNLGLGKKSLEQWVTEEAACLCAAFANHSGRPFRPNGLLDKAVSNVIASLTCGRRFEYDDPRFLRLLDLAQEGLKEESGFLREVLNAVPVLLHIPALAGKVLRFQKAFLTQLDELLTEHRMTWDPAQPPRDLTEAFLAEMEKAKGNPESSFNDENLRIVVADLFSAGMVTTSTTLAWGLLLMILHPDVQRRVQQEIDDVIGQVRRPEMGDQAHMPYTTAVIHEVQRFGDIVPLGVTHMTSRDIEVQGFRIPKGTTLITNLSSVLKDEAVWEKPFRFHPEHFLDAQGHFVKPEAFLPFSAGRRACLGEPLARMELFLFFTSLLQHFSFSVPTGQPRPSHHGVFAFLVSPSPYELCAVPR
Procedure: as §1

hERG channel = biological target: T4, hERG channel (Homo sapiens, UniProt Q12809); experiment: hERG assay (automated QPatch); assay type: cell-based; settings: CHO cells expressing hERG channels
T4 construct: expressed in transfected cells; host or cells: CHO
T4 sequence (Q12809 whole entry): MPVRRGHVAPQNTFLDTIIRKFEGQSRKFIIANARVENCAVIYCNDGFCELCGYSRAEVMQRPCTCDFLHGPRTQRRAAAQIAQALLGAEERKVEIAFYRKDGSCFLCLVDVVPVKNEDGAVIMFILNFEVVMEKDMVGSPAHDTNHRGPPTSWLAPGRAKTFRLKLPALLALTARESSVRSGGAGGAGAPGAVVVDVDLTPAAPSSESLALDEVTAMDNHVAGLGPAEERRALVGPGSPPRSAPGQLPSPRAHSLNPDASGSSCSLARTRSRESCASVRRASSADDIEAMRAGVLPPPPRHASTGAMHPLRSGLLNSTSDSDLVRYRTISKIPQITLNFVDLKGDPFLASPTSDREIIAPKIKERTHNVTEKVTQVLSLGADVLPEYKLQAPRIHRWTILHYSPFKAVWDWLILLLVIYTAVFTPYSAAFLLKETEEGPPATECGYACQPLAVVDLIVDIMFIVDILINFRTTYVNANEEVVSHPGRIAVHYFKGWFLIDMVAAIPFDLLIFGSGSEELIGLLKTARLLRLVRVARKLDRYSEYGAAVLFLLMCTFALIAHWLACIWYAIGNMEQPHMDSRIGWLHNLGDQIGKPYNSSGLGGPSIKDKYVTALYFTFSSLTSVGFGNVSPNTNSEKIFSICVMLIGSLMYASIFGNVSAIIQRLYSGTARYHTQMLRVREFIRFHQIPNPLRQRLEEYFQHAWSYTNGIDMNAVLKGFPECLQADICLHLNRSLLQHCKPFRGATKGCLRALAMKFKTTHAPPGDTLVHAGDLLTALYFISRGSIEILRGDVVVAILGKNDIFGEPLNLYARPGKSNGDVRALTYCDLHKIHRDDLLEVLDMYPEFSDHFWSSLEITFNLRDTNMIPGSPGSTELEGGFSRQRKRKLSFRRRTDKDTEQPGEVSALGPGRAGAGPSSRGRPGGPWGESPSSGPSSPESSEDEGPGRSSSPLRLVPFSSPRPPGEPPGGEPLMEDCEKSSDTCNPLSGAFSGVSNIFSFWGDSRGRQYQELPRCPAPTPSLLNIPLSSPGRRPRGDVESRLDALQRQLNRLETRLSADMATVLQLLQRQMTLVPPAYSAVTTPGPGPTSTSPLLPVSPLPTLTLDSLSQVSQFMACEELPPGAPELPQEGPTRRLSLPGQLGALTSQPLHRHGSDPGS
Procedure: A CHO cell line stably transfected with hERG cDNA and expressing hERG channels was used. Cells used in the QPatch all met the following criteria: under microscopy examination, the majority of cells in suspension were single and isolated, their viability was greater than 95%, cell density ranged between 3-8×10^6 cells/mL in the final suspension before applying to the QPatch stir chamber. Cells were used within 4 hours of harvesting. Whole-cell recordings were performed using automated QPatch (Sophion Bioscience, Denmark). The cells were voltage clamped at a holding potential of −80 mV. The hERG current was activated by depolarising at +20 mV for 5 seconds, after which the current was taken back to −50 mV for 2.5 seconds to remove the inactivation and observe the outward tail current. The maximum amount of tail current was used to determine hERG current amplitude.

[3] = HepG2 cytotoxicity (CellTiter-Glo); assay type: cell-based; settings: human, HepG2 cells; 48 h of exposure
Procedure: HepG2 is a human hepatoma commonly used in drug metabolism and hepatotoxicity studies.
HepG2 cells were seeded at a density of 7000 or 8000 cells/well in a 96-well plate. Twenty to twenty four hours later, cells were treated with test compound for 48 hours in 3-fold serial dilutions with a top test concentration of 50 or 150 μM. After the incubation, CellTiter-Glo reagent was added directly to the wells. The plate was shaken for 2 or 5 mins on a plate shaker then incubated at room temperature for a further 10 mins. Subsequently, 100 μL of the above solution was transferred to a white flat bottom opaque 96 well plate (or opaque-walled clear bottom plates taped with a white bottom seal) and luminescence recorded on a plate reader.

T1 sequence (Q8NBP7 153-692): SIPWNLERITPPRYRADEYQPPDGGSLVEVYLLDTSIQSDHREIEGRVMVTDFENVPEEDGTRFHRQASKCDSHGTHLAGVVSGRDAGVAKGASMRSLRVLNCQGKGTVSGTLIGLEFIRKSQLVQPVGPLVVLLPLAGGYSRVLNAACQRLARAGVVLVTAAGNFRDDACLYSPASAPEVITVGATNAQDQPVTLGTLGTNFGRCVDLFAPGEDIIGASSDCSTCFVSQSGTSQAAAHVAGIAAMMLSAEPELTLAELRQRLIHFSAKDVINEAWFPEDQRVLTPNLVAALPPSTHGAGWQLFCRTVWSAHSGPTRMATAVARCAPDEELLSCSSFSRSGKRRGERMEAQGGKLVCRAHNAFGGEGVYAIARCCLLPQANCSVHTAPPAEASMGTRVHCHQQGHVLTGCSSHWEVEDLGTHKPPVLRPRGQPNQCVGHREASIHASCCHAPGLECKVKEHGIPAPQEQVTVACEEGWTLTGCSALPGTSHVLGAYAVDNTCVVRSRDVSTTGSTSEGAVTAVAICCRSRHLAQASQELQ
T1 sequence (Q8NBP7 31-152 partner limits assumed): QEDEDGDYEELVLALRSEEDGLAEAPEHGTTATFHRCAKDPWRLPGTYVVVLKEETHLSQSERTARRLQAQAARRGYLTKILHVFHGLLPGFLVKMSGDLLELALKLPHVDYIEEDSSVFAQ

Compound	IC50 [1]	Vd [2]	inhibition at 10 µM (CYP3A4)	inhibition at 10 µM (CYP2D6)	IC50 (hERG channel)	IC50 at 48 h [3]	VSS [2]
Cc1ccc(-c2cc(CN3CCC(F)(F)[C@H](N)C3)cc(NC(=O)c3cc(-c4ccccc4)ccn3)c2)cn1 [Compound 122]	0.279 µM	1.29 L/kg	-15.4%	25.6%	35.7 µM	11.1 µM	
Cc1cn(-c2cc(CN3CCC[C@H](N)C3)cc(NC(=O)c3cc(-c4ccccc4)ccn3)c2)cn1 [compound 29, (S)—N-(3-((3-aminopiperidin-1-yl)methyl)-5-(4-methyl-1H-imidazol-1-yl)phenyl)-4-phenylpicolinamide]	0.32 µM		74%	69.8%	2.85 µM	3.23 µM	14.7 L/kg
Cc1cnc(C(=O)Nc2cc(CN3CCC(F)(F)[C@H](N)C3)cc(-c3ccc(C(F)(F)F)nc3)c2)cc1-c1ccccc1 [compound 131]	0.547 µM	3.25 L/kg	0.68%	11.4%	94.2 µM	109 µM	
